According to ChEMBL document CHEMBL1944599, “From libraries to candidate: the discovery of new ultra long-acting dibasic β₂-adrenoceptor agonists” (Bioorg Med Chem Lett, 2012):
The source made the active and inactive calls. The calls are words filed in the database; no cut-off is given here.

Experiments:
Cavia porcellus [1] = assay: Bronchoprotective activity in it dosed guinea pig assessed as inhibition of histamine-induced constriction
Hepatocyte = conditions: rat, hepatocytes
Description: Drug metabolism in rat hepatocytes

[2] = molecular target: T1, Beta-1 adrenergic receptor (Homo sapiens, UniProt P08588); assay: Displacement of radiolabeled iodocyanopindolol from beta1 adrenoceptor
T1 sequence (P08588 whole entry): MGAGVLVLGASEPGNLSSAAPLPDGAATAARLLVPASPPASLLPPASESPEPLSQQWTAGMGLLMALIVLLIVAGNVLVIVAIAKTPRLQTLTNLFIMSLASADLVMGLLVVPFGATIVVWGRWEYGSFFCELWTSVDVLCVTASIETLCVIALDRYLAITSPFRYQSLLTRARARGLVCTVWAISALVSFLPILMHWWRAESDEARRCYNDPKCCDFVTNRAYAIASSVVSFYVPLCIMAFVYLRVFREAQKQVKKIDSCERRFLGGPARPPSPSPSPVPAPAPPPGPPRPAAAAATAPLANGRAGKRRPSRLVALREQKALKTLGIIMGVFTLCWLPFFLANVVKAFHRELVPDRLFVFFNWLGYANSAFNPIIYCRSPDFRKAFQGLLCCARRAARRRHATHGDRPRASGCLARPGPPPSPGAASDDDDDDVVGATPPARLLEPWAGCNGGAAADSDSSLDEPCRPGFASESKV

physchem = conditions: 1-octanol/aqueous buffer, pH 7.4
[3] = molecular target: T2, Alpha-1D adrenergic receptor (Homo sapiens, UniProt P25100); assay: Displacement of radiolabeled Prazosin from alpha1D adrenoceptor
T2 sequence (P25100 whole entry): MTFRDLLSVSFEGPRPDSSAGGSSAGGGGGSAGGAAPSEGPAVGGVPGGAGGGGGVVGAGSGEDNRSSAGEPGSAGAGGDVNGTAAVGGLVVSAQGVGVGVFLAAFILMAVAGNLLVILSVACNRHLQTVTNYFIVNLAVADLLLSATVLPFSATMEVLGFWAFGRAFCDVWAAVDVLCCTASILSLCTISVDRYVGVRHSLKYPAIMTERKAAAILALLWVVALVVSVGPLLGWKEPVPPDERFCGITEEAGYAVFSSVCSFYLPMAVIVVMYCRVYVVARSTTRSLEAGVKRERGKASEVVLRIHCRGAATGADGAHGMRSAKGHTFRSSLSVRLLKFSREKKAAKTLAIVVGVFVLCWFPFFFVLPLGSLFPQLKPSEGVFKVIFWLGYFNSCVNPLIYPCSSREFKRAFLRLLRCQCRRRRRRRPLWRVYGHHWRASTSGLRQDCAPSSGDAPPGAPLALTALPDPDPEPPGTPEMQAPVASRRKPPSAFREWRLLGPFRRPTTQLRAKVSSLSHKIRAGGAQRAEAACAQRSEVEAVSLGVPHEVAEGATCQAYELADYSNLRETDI

[4] = molecular target: T3, Beta-2 adrenergic receptor (Homo sapiens, UniProt P07550); assay: Agonist activity at human beta2 adrenoceptor expressed in H292 cells assessed as increase in cAMP accumulation after 60 mins by spectrophotometry; format: functional, cell-based
T3 sequence (P07550 whole entry): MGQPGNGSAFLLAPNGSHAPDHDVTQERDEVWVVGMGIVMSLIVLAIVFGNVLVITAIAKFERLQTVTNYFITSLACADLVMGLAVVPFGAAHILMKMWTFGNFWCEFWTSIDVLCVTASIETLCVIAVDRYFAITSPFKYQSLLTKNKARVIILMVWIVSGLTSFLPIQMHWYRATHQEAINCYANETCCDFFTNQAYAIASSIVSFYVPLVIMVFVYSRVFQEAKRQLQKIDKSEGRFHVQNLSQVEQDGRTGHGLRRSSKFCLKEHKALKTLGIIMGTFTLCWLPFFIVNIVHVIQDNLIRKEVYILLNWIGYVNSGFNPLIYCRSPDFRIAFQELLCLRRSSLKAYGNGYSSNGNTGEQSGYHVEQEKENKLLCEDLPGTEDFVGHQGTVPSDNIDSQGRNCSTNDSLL

[5] = molecular target: T3, Beta-2 adrenergic receptor; assay: Displacement of radiolabeled iodocyanopindolol from recombinant beta2 adrenoceptor
D(2) dopamine receptor [6] = molecular target: T4, D(2) dopamine receptor (Homo sapiens, UniProt P14416); assay: Displacement of radiolabeled spiperone from dopamine D2 receptor
T4 sequence (P14416 whole entry): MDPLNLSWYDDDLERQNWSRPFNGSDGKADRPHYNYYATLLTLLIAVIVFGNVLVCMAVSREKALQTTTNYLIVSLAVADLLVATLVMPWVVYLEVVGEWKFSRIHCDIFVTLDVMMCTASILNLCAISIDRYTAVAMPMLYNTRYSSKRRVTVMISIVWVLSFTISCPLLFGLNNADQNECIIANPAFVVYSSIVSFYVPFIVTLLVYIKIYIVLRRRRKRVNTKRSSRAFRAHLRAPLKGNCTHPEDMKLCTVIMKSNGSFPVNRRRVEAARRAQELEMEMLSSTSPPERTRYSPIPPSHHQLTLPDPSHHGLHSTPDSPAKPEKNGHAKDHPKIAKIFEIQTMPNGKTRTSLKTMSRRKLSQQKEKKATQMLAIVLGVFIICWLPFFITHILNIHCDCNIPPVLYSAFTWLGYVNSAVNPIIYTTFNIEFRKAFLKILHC

[7] = molecular target: T1, Beta-1 adrenergic receptor; assay: Binding affinity to beta1 adrenoceptor
[8] = molecular target: Beta-2 adrenergic receptor (Cavia porcellus, UniProt Q8K4Z4); assay: Agonist activity at beta2 adrenoceptor in guinea pig trachea assessed as reduction in methacholine-induced contraction; format: functional, tissue-based
Beta-2 adrenergic receptor (Cavia porcellus, UniProt Q8K4Z4), sequence (Q8K4Z4 whole entry): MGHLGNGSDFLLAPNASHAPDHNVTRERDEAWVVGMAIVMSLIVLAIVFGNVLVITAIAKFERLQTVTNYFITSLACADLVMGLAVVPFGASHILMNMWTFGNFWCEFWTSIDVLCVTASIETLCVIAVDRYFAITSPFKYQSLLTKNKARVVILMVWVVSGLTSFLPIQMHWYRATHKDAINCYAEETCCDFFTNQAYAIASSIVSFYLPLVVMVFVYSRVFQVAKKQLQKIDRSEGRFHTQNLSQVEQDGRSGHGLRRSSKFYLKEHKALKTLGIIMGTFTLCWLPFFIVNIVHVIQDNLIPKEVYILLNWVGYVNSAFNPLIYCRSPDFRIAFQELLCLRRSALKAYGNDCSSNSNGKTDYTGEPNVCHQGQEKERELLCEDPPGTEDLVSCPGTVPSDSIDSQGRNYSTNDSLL

[9] = Half life in it dosed dog; format: ADME, organism-based, Canis lupus familiaris; conditions: in vivo, inhaled or intranasal
D(2) dopamine receptor [10] = molecular target: T4, D(2) dopamine receptor; assay: […] to dopamine D2 receptor expressed in HEK cells by GTPgammaS binding assay; format: cell-based, HEK293
Cavia porcellus [11] = assay: Bronchoprotective activity in histamine-induced bronchoconstriction guinea pig model at 7 ug/kg, it after 24 hrs; format: functional
[12] = molecular target: T2, Alpha-1D adrenergic receptor; assay: […] to Alpha-1D adrenoceptor expressed in HEK cells by calcium flux assay; format: cell-based, HEK293
[13] = Apparent volume of distribution during terminal phase in iv dosed rat; format: ADME, organism-based; conditions: in vivo, read-out: Vz
[14] = molecular target: T5, Voltage-gated inwardly rectifying potassium channel KCNH2 (Homo sapiens, UniProt Q12809); assay: Inhibition of human ERG by patch clamp assay
T5 sequence (Q12809 whole entry): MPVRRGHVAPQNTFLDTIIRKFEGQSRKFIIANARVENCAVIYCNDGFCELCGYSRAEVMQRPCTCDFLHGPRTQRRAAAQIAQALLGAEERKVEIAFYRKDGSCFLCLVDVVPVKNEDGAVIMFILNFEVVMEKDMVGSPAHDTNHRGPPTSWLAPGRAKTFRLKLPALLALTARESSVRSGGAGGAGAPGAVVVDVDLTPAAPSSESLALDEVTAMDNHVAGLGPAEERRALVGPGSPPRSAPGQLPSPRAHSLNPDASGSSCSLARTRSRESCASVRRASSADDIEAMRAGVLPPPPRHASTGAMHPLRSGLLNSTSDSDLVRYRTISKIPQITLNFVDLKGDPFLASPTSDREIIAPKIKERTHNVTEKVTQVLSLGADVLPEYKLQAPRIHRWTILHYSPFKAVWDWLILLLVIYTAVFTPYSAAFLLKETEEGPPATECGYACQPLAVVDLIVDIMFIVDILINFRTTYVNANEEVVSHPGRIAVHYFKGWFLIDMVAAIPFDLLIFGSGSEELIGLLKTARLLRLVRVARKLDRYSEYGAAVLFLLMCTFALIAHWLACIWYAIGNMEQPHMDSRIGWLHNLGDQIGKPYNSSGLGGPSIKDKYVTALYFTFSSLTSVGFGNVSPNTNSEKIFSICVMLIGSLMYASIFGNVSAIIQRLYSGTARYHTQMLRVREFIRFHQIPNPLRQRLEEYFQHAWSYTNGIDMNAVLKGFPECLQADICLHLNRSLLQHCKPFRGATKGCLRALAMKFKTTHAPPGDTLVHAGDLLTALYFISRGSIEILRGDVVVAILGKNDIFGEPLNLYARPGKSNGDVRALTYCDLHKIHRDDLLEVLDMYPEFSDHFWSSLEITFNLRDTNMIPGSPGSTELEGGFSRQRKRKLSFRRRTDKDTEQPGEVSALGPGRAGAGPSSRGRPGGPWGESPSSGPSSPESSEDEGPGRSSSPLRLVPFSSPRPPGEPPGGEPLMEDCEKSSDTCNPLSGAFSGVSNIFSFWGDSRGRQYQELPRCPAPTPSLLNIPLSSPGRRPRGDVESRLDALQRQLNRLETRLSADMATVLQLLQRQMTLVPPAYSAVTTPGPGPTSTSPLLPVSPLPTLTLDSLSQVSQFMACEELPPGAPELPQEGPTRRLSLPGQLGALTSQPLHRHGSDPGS

in vivo = conditions: rat, iv
Description: Terminal half life in iv dosed rat

[15] = Inhibition of cytochrome P450; format: ADME
[16] = Oral bioavailability in dog; format: ADME, organism-based, Canis lupus familiaris; conditions: in vivo
[17] = Clearance in iv dosed rat; conditions: in vivo
[18] = Oral bioavailability in rat; format: ADME, organism-based; conditions: in vivo
[19] = molecular target: T6, Alpha-1D adrenergic receptor (Homo sapiens) (UniProt P25100); assay: […] to Alpha-1D adrenoceptor expressed in HEK cells by calcium flux assay relative to control; format: cell-based; conditions: HEK293
T6 sequence (whole entry): T2 sequence (P25100 whole entry)

Cavia porcellus [20] = assay: Bronchoprotective activity in histamine-induced bronchoconstriction guinea pig model at 7 ug/kg, it co-administered with beta2 adrenoceptor antagonist propranolol; format: functional, organism-based
[21] = molecular target: Beta-2 adrenergic receptor (Cavia porcellus) (UniProt Q8K4Z4); assay: Agonist activity at beta2 adrenoceptor in guinea pig trachea assessed as reduction in methacholine-induced contraction relative to untreated control; format: functional, tissue-based
Beta-2 adrenergic receptor (Cavia porcellus), sequence (Q8K4Z4 whole entry, looked up): as the sequence (Q8K4Z4 whole entry) above

D(2) dopamine receptor [22] = molecular target: T4, D(2) dopamine receptor; assay: […] to dopamine D2 receptor expressed in HEK cells by GTPgammaS binding assay relative to control; format: cell-based; conditions: HEK293
Cytochrome P450 3A4 = Cytochrome P450 3A4 (Homo sapiens, UniProt P08684); assay: Inhibition of CYP3A4; format: ADME
Cytochrome P450 3A4, sequence (P08684 whole entry): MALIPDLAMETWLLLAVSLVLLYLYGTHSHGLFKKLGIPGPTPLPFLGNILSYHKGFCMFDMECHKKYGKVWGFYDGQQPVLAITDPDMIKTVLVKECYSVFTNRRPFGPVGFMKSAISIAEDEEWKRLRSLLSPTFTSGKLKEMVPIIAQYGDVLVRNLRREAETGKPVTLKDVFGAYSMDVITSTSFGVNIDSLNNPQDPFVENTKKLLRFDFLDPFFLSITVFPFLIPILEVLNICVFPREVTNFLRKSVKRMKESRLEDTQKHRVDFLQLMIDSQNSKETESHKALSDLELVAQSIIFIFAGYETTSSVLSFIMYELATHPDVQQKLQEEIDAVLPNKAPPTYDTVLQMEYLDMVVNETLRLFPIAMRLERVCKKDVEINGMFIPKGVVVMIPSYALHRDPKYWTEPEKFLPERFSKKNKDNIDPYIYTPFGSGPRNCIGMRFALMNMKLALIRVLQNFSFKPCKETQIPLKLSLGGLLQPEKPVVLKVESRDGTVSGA

[23] = molecular target: T5, Voltage-gated inwardly rectifying potassium channel KCNH2; assay: Inhibition of human ERG
Cytochrome P450 2D6 = Cytochrome P450 2D6 (Homo sapiens, UniProt P10635); assay: Inhibition of CYP2D6; format: ADME
Cytochrome P450 2D6, sequence (P10635 whole entry): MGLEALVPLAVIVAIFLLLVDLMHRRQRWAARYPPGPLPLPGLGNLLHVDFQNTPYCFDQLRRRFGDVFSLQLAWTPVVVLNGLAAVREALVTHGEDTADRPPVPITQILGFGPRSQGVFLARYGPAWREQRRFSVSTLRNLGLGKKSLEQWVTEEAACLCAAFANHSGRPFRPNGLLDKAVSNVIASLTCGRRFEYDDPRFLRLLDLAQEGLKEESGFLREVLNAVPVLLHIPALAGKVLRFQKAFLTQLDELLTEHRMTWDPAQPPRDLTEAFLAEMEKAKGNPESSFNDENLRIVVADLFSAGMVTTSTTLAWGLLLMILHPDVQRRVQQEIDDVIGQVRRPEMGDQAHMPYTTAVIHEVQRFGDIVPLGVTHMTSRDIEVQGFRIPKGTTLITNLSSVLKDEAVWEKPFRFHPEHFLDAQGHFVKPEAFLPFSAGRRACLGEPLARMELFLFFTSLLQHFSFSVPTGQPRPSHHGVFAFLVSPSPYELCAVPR

Row | Structure (SMILES) | IC50 [2] [nM] | logD (physchem) | IC50 [3] [nM] | EC50 [4] [nM] | IC50 [5] [nM] | IC50 (D(2) dopamine receptor [6]) [nM] | also measured
1 | OCc1cc(C(O)CNCCCCCCOCCCCc2ccccc2)ccc1O (configuration not stated) [SALMETEROL] |  |  |  |  |  |  | ED80 (Cavia porcellus [1]): 1 µg/kg; Drug metabolism (Hepatocyte): 85%
2 | Cc1cccc2c(CCNCc3cccc(CCNC[C@H](O)c4ccc(O)c5[nH]c(=O)sc45)c3)c[nH]c12 | 79.4 | 1.1 | 398 | 0.316 | 0.631 | 398 | 
3 | O=c1[nH]c2c(O)ccc([C@@H](O)CNCCc3cccc(CNCc4ccccc4F)c3)c2s1 | 6.31 | 0.7 | 79.4 | 0.631 | 1 | 631 | 
4 | O=c1[nH]c2c(O)ccc([C@@H](O)CNCCc3cccc(CNCCCc4ccccc4)c3)c2s1 | 20 | 1.1 | 158 | 0.501 | 0.794 | 316 | 
5 | O=c1[nH]c2c(O)ccc(CCNCCS(=O)(=O)CCCOCCc3ccccc3)c2s1 [SIBENADET] |  |  |  |  |  |  | IC50 [7]: > 10000 nM; Drug metabolism (Hepatocyte): > 117%
6 | COc1ccccc1CNCc1cccc(CCNC[C@H](O)c2ccc(O)c3[nH]c(=O)sc23)c1 [listing 1 of 2 here] | 50.1 | 1.1 | 200 |  |  | 1000 | EC50 [8]: 0.501 nM; half-life [9]: 48 h; EC50 (D(2) dopamine receptor [10]): 251 nM; Activity (Cavia porcellus [11]): 64%; EC50 [12]: 126 nM; Vd [13]: 22 L/kg; Activity [14]: > 10 µM; half-life (in vivo): 14 h; Activity [15]: > 10 µM; bioavailability [16]: < 2%; clearance [17]: 20 mL/min/kg; bioavailability [18]: < 2%
7 | COc1ccccc1CNCc1cccc(CCNC[C@H](O)c2ccc(O)c3[nH]c(=O)sc23)c1 [listing 2 of 2 here] |  |  |  |  |  |  | Intrinsic activity [19]: 0.3; Activity (Cavia porcellus [20]): inactive; Intrinsic activity [21]: 0.9; Intrinsic activity (D(2) dopamine receptor [22]): 0.4
8 | O=c1[nH]c2c(O)ccc([C@@H](O)CNCCc3ccc(CNCCc4c(Cl)cccc4Cl)cc3)c2s1 | 398 | 2.3 | 79.4 | 0.316 | 3.98 | 1000 | inhibition (INH) (Cytochrome P450 3A4): Active; inhibition (INH) [23]: Active; inhibition (INH) (Cytochrome P450 2D6): Active
9 | O=c1[nH]c2c(O)ccc([C@@H](O)CNCCOc3cccc(CNCCc4ccccc4F)c3)c2s1 | 200 | 1.9 | 25.1 | 2.51 | 7.94 | 398 | 
10 | C[C@@H](NCc1ccccc1-c1ccc(CCNCCc2ccc(O)c3[nH]c(=O)sc23)cc1)c1ccccc1 |  | -0.3 |  |  | 0.794 |  | EC50 [8]: 0.251 nM; Intrinsic activity [21]: 0.9; Vd [13]: 22 L/kg; half-life (in vivo): 15 h; clearance [17]: 19 mL/min/kg
11 | O=c1[nH]c2c(O)ccc([C@@H](O)CNCCc3cccc(CNCCc4c(Cl)cccc4Cl)c3)c2s1 | 12.6 | 3.2 | 63.1 |  |  | 251 | inhibition (INH) (Cytochrome P450 3A4): Active; inhibition (INH) [23]: Active; inhibition (INH) (Cytochrome P450 2D6): Active
12 | CC(CNCc1ccc(CCNC[C@H](O)c2ccc(O)c3[nH]c(=O)sc23)cc1)c1ccccc1 (some centres not stated) | 501 | 1.2 | 31.6 | 0.398 | 0.2 | 2510 | 
13 | COCCNCc1cccc(CCNC[C@H](O)c2ccc(O)c3[nH]c(=O)sc23)c1 | 158 | 0 | 501 |  | 25.1 | 794 | EC50 [8]: 3.16 nM; Intrinsic activity [21]: 0.8; Vd [13]: 28 L/kg; half-life (in vivo): 18 h; clearance [17]: 18 mL/min/kg
14 | COc1ccccc1CNCc1ccc(CCNC[C@H](O)c2ccc(O)c3[nH]c(=O)sc23)cc1 | 1260 | 0.2 | 100 | 3.16 | 126 | 2510 | 
15 | O=c1[nH]c2c(O)ccc([C@@H](O)CNCCc3cccc(CNCCc4ccccc4F)c3)c2s1 | 63.1 | 1.1 | 126 | 0.158 | 0.501 | 398 | EC50 [8]: 0.251 nM; Intrinsic activity [21]: 0.9; Vd [13]: 8.2 L/kg; half-life (in vivo): 16 h; clearance [17]: 6 mL/min/kg
16 | O=c1[nH]c2c(O)ccc([C@@H](O)CNCCc3ccc(CNCCc4ccccc4F)cc3)c2s1 | 398 | 1.3 | 50.1 | 0.398 | 2 | 2000 | 
17 | Cc1cccc2c(CCNCc3ccc(CCNC[C@H](O)c4ccc(O)c5[nH]c(=O)sc45)cc3)c[nH]c12 | 316 |  | 100 | 0.251 | 2 | > 794 | EC50 [8]: 0.2 nM; Intrinsic activity [21]: 0.8; Vd [13]: 29 L/kg; half-life (in vivo): 18 h; clearance [17]: 18 mL/min/kg
18 | O=c1[nH]c2c(O)ccc([C@@H](O)CNCCc3cccc(CNCCc4ccccc4Cl)c3)c2s1 | 158 | 1.6 | 50.1 | 0.251 | 0.631 | 631 | 
19 | O=c1[nH]c2c(O)ccc([C@@H](O)CNCCc3ccccc3CNCCc3ccccc3F)c2s1 | 2 | 1.6 | 200 | 1.58 | 12.6 | 794 | 
20 | COc1cccc(CNCc2cccc(CCNC[C@H](O)c3ccc(O)c4[nH]c(=O)sc34)c2)c1 | 63.1 | 0.9 | 100 | 1 | 6.31 | 794 | 
21 | COc1ccc(CNCc2cccc(CCNC[C@H](O)c3ccc(O)c4[nH]c(=O)sc34)c2)cc1 | 10 | 0.9 | 158 | 0.794 | 5.01 | 794 | 
22 | CCc1cc2c(cc1CC)CC(NC[C@H](O)c1ccc(O)c3[nH]c(=O)ccc13)C2 [INDACATEROL] |  |  |  |  |  |  | half-life (in vivo): 7.6 h; IC50 [7]: […]; ED80 (Cavia porcellus [1]): 14 µg/kg; Drug metabolism (Hepatocyte): 51%
23 | O=c1[nH]c2c(O)ccc([C@@H](O)CNCCc3ccc(CNCCc4ccccc4)cc3)c2s1 | 398 | 1.1 | 12.6 | 0.251 | 2 | 2000 | 
24 | COc1ccccc1CNCc1cccc(CCNC[C@H](O)c2ccc(O)c3[nH]c(=O)sc23)c1.Cl |  |  |  |  |  |  | ED80 (Cavia porcellus [1]): 7 µg/kg
25 | O=c1[nH]c2c(O)ccc([C@@H](O)CNCCc3cccc(CNCCc4ccccn4)c3)c2s1 | 158 |  | 200 | 0.501 | 2.51 | 1580 | EC50 [8]: 0.316 nM; Intrinsic activity [21]: 0.9; Vd [13]: 41 L/kg
26 | O=c1[nH]c2c(O)ccc(CCNCCc3cccc(-c4cccc(CNCc5ccccc5)c4)c3)c2s1 |  | 0.8 |  |  | 31.6 |  | EC50 [8]: 0.501 nM; Intrinsic activity [21]: 0.9; Vd [13]: 29 L/kg; half-life (in vivo): 14 h; clearance [17]: 23 mL/min/kg
27 | COc1ccccc1CN(C)Cc1cccc(CCNC[C@H](O)c2ccc(O)c3[nH]c(=O)sc23)c1 | 200 | 1.5 | 251 | 3.16 | 25.1 | 1000 | 
28 | COCCNCc1ccc(CCNC[C@H](O)c2ccc(O)c3[nH]c(=O)sc23)cc1 | 794 | -0.5 | 631 | 15.8 | 316 | > 10000 | 
29 | COc1ccccc1CCNCc1cccc(CCNC[C@H](O)c2ccc(O)c3[nH]c(=O)sc23)c1 | 251 | 0.8 | 79.4 | 0.316 | 0.794 | > 794 | 
30 | O=c1[nH]c2c(O)ccc([C@@H](O)CNCCc3cccc(CNCc4ccccc4Cl)c3)c2s1 | 10 | 1.9 | 158 |  |  | 251 | 
